Data as given in patent publication EP4389751A1, “HETEROCYCLIC COMPOUNDS AND USES THEREOF” (Kumquat Biosciences Inc., priority 2021, dated 2024).
Like-named read-outs stand apart in the source and are kept apart here.

How the values were obtained:
K-Ras G12S = biological target: T1, K-Ras G12S (Homo sapiens, UniProt P01116, G12S); assay: HTRF assay of the K-Ras / SOS1 interaction; type: biochemical; conditions: IC50 (against K-Ras G12D) to IC50 (against K-Ras G12S)
T1 construct: made in house; host or cells: E. coli (e.g., BL21 (DE3))
How it was run: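 GST-K-Ras G12S with anti-GST-Eu donor and His-hSOS1 with anti-6His-XL665 acceptor in ~5 mM HEPES pH 7.4, ~150 mM NaCl, 1 mM DTT, 0.05% BSA, 0.0025% Igepal. Read after ~10 min or longer; IC50 from 665/620 nm ratio, duplicates at 10 µM down to 0.01 µM.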

GP2D cells = assay: Cell proliferation assay (CellTiter-Glo), K-Ras G12D cells; type: cell-based; conditions: read-out: Inhibition of GP2D Cells (IC50)
Procedure: ASPC-1 (ATCC CRL-1682), Panc-10.05 (ATCC CRL-2547), A427, and GP2D (Sigma 95090714) cell lines comprise a G12D mutation and can be used to assess Ras cellular signaling in vitro, e.g., in response to the compounds herein. […] ASPC-1 culture medium is prepared with RPMI-1640 and 10% heat-inactivated FBS. Panc-10.05 culture medium is prepared with RPMI-1640, 10 Units/ml human recombinant insulin, and 10% FBS. A427 cell culture is prepared with RPMI-1640 and 10% heat-inactivated FBS. GP2D culture medium is prepared with DMEM with 2mM glutamine and 10% heat-inactivated FBS. A Cell Titer-Glo (CTG) luminescent based assay (Promega) is used to assess growth of the cells, as a measurement of the ability of the compounds herein to inhibit Ras signaling in the cells. The cells (e.g., 800 per well) are seeded in their respective culture medium in standard tissue culture-treated 384-well format plates (Falcon #08-772-116) or ultra-low attachment surface 384-well format plates (S-Bio # MS-9384UZ ). The day after plating, cells are treated with a dilution series (e.g., a 9 point 3-fold dilution series) of the compounds herein (e.g., approximately 40 µl final volume per well). Cell viability can be monitored (e.g., approximately 5 days later) according to the manufacturer's recommended instructions, where the CellTiter-Glo reagent is added (e.g., approximately 10 µl), vigorously mixed, covered, and placed on a plate shaker (e.g., approximately for 20 min) to ensure sufficient cell lysis prior to assessment of luminescent signal. The IC50 values are determined using the four parameter fit. The resulting IC50 value is a measurement of the ability of the compounds herein to reduce cell growth of Ras-driven cells (e.g., tumor cell lines) in vitro and/or in vivo.

Compound | Ratio of IC50 KRAS G12D vs. IC50 KRAS G12S (K-Ras G12S) | IC50 (GP2D cells; GP2d) [nM] | IC50 (GP2D cells; GP2D cells (K-Ras G12D)) [nM]
Nc1nc2c(-c3c(Cl)cc4c(N5CC6CCC(C5)N6C(=O)n5cc(F)cn5)nc(OC[C@@]56CCCN5C[C@H](F)C6)nc4c3F)ccc(F)c2s1 [Compound A101, (3-(7-(2-amino-7-fluorobenzo[d]thiazol-4-yl)-6-chloro-8-fluoro-2-(((2R,7aS)-2-fluorotetrahydro-1H-pyrrolizin-7a(5H)-yl)methoxy)quinazolin-4-yl)-3,8-diazabicyclo[3.2.1]octan-8-yl)(4-fluoro-1H-pyrazol-1-yl)methanone] | A (A: indicates that the ratio of IC50 against KrasG12D vs. IC50 against KrasG12S is 1-fold or greater) | 1000 to 10000 | 
Nc1nc2c(-c3c(Cl)cc4c(N5C6CCC5CN(C(=O)n5cncn5)C6)nc(OC[C@@]56CCCN5C[C@H](F)C6)nc4c3F)ccc(F)c2s1 [Compound A239, (8-(7-(2-amino-7-fluorobenzo[d]thiazol-4-yl)-6-chloro-8-fluoro-2-(((2R,7aS)-2-fluorotetrahydro-1H-pyrrolizin-7a(5H)-yl)methoxy)quinazolm-4-yl)-3,8-diazabicyclo[3.2.1]octan-3-yl)(1H-1,2,4-triazol-1-yl)methanone] | A (A: indicates that the ratio of IC50 against KrasG12D vs. IC50 against KrasG12S is 1-fold or greater) |  | ≤ 1000
N#Cc1c(N)sc2c(F)ccc(-c3c(Cl)cc4c(O[C@H]5C[C@H]6CC[C@@H](C5)N6C(=O)n5cncn5)nc(OC[C@@]56CCCN5C[C@H](F)C6)nc4c3F)c12 [Compound A300, 4-(4-(((1R,3r,5S)-8-(1H-1,2,4-triazole-1-carbonyl)-8-azabicyclo[3.2.1]octan-3-yl)oxy)-6-chloro-8-fluoro-2-(((2R,7aS)-2-fluorotetrahydro-1H-pyrrolizin-7 a(5H)-yl)methoxy)quinazolin-7-yl)-2-amino-7-fluorobenzo[b]thiophene-3-carbonitrile] | A (A: indicates that the ratio of IC50 against KrasG12D vs. IC50 against KrasG12S is 1-fold or greater) | 1000 to 10000 | 
N#Cc1cnn(C(=O)N2CC3COCC(C2)N3c2nc(OC[C@@]34CCCN3C[C@H](F)C4)nc3c(F)c(-c4ccc(F)c5sc(N)c(C#N)c45)c(Cl)cc23)c1 [Compound A249, 1-(9-(7-(2-amino-3-cyano-7-fluorobenzo[b]thiophen-4-yl)-6-chloro-8-fluoro-2-(((2R,7aS)-2-fluorotetrahydro-1H-pyrrolizin-7a(5H)-yl)methoxy)quinazolin-4-yl)-3-oxa-7,9-diazabicyclo[3.3.1]nonane-7-carbonyl)-1H-pyrazole-4-carbonitrile] | A (A: indicates that the ratio of IC50 against KrasG12D vs. IC50 against KrasG12S is 1-fold or greater) |  | ≤ 1000
N#Cc1c(N)sc2c(F)ccc(-c3c(Cl)cc4c(N5CC6CCC(C5)N6C(=O)n5cccc5C#N)nc(OC[C@@]56CCCN5C[C@H](F)C6)nc4c3F)c12 [Compound A138, 1-(3-(7-(2-amino-3-cyano-7-fluorobenzo[b]thiophen-4-yl)-6-chloro-8-fluoro-2-(((2R,7aS)-2-fluorotetrahydro-1H-pyrrolizin-7a(5H)-yl)methoxy)quinazolin-4-yl)-3,8-diazabicyclo[3.2. 1]octane-8-carbonyl)-1H-pyrrole-2-carbonitrile] | A (A: indicates that the ratio of IC50 against KrasG12D vs. IC50 against KrasG12S is 1-fold or greater) | ≤ 1000 | 
Nc1nc2c(-c3c(Cl)cc4c(NC5CCN(C(=O)n6cncn6)CC5)nc(OC[C@@]56CCCN5C[C@H](F)C6)nc4c3F)ccc(F)c2s1 [Compound A187, (4-((7-(2-amino-7-fluorobenzo[d]thiazol-4-yl)-6-chloro-8-fluoro-2-(((2R,7aS)-2-fluorotetrahydro-1H-pyrrolizin-7a(5H)-yl)methoxy)quinazolin-4-yl)amino)piperidin-1-yl)(1H-1,2,4-triazol-1-yl)methanone] | A (A: indicates that the ratio of IC50 against KrasG12D vs. IC50 against KrasG12S is 1-fold or greater) |  | 1000 to 10000
Nc1nc2c(-c3c(Cl)cc4c(N5CC6CCC(C5)N6C(=O)Nc5ncccn5)nc(OC[C@@]56CCCN5C[C@H](F)C6)nc4c3F)ccc(F)c2s1 [Compound A274, 3-(7-(2-amino-7-fluorobenzo[d]thiazol-4-yl)-6-chloro-8-fluoro-2-(((2R,7aS)-2-fluorotetrahydro-1H-pyrrolizin-7a(5H)-yl)methoxy)quinazolin-4-yl)-N-(pyrimidin-2-yl)-3,8-diazabicyclo[3.2. 1]octane-8-carboxamide] | A (A: indicates that the ratio of IC50 against KrasG12D vs. IC50 against KrasG12S is 1-fold or greater) |  | ≤ 1000
Nc1nc2c(-c3c(Cl)cc4c(N5CCC6CN(C(=O)n7cncn7)CC6C5)nc(OC[C@@]56CCCN5C[C@H](F)C6)nc4c3F)ccc(F)c2s1 (stereo partly drawn) [Compound A294, (5-(7-(2-amino-7-fluorobenzo[d]thiazol-4-yl)-6-chloro-8-fluoro-2-(((2R,7aS)-2-fluorotetrahydro-1H-pyrrolizin-7a(5H)-yl)methoxy)quinazolin-4-yl)octahydro-2H-pyrrolo[3,4-c]pyridin-2-yl)(1H-1,2,4-triazol-1-yl)methanone] | A (A: indicates that the ratio of IC50 against KrasG12D vs. IC50 against KrasG12S is 1-fold or greater) |  | 1000 to 10000
2-amino-4-(6-chloro-8-fluoro-2-(((2R,7aS)-2-fluorotetrahydro-1H-pyrrolizin-7 a(5H)-yl)methoxy)-4-(8-(4-methyl-1H-1,2,3-triazole-1-carbonyl)-3,8-diazabicyclo[3.2.1]octan-3-yl)quinazolin-7-yl)-7-fluorobenzo[b]thiophene-3-carbonitrile [Compound A189] | A (A: indicates that the ratio of IC50 against KrasG12D vs. IC50 against KrasG12S is 1-fold or greater) |  | ≤ 1000
N#Cc1c(N)sc2c(F)ccc(-c3ncc4c(N5CC6CCC(C5)N6C(=O)n5cncn5)nc(OC[C@@]56CCCN5C[C@H](F)C6)nc4c3F)c12 [Compound A206, 4-(4-(8-(1H-1,2,4-triazole-1-carbonyl)-3,8-diazabicyclo[3.2.1]octan-3-yl)-8-fluoro-2-(((2R,7aS)-2-fluorotetrahydro-1H-pyrrolizin-7a(5H)-yl)methoxy)pyrido[4,3-d]pyrimidin-7-yl)-2-amino-7-fluorobenzo[b]thiophene-3-carbonitrile] | A (A: indicates that the ratio of IC50 against KrasG12D vs. IC50 against KrasG12S is 1-fold or greater) |  | ≤ 1000
N#Cc1ccn(C(=O)N2C3CCC2CN(c2nc(OC[C@@]45CCCN4C[C@H](F)C5)nc4c(F)c(-c5ccc(F)c6sc(N)nc56)c(Cl)cc24)C3)c1 [Compound A188, 1-(3-(7-(2-amino-7-fluorobenzo[d]thiazol-4-yl)-6-chloro-8-fluoro-2-(((2R,7aS)-2-fluorotetrahydro-1H-pyrrolizin-7a(5H)-yl)methoxy)quinazolin-4-yl)-3,8-diazabicyclo[3.2. 1]octane-8-carbonyl)-1H-pyrrole-3-carbonitrile] | A (A: indicates that the ratio of IC50 against KrasG12D vs. IC50 against KrasG12S is 1-fold or greater) | ≤ 1000 | 
Nc1nc2c(-c3c(Cl)cc4c(N5CCC6(CC5)CN(C(=O)n5cnc(F)c5)C6)nc(OC[C@@]56CCCN5C[C@H](F)C6)nc4c3F)ccc(F)c2s1 [Compound A303, (7-(7-(2-amino-7-fluorobenzo[d]thiazol-4-yl)-6-chloro-8-fluoro-2-(((2R,7aS)-2-fluorotetrahydro-1H-pyrrolizin-7a(5H)-yl)methoxy)quinazolin-4-yl)-2,7-diazaspiro[3.5]nonan-2-yl)(4-fluoro-1H-imidazol-1-yl)methanone] | A (A: indicates that the ratio of IC50 against KrasG12D vs. IC50 against KrasG12S is 1-fold or greater) |  | 1000 to 10000
Nc1nc2c(-c3c(Cl)cc4c(N5CC6CCC(C5)N6C(=O)Nc5cncnc5)nc(OC[C@@]56CCCN5C[C@H](F)C6)nc4c3F)ccc(F)c2s1 [Compound A124, 3-(7-(2-amino-7-fluorobenzo[d]thiazol-4-yl)-6-chloro-8-fluoro-2-(((2R,7aS)-2-fluorotetrahydro-1H-pyrrolizin-7a(5H)-yl)methoxy)quinazolin-4-yl)-N-(pyrimidin-5-yl)-3,8-diazabicyclo[3.2. 1]octane-8-carboxamide] | A (A: indicates that the ratio of IC50 against KrasG12D vs. IC50 against KrasG12S is 1-fold or greater) | ≤ 1000 | 
